Assay results: patent publication US9975903B2, “Condensed heterocyclic compound” (Takeda Pharmaceutical Company Limited, priority 2014, dated 2018)
Where a name gives a salt, the structure may show the parent alone. Read-outs that look alike come from different tables or passages of the source.

Target: T1, Human recombinant enteropeptidase (Homo sapiens, UniProt P98073)
T1 construct: purchased ITSI-Biosciences LLC #REN-260
Assay: Human enteropeptidase inhibitory activity (Test Example 1)
Type: biochemical
Conditions: for inhibition at 3.3 µM: read-out: 3.3 μM Inhibition
Method: Human recombinant enteropeptidase (#REN-260, ITSI-Biosciences LLC) was diluted with an assay buffer (50 mM Tricine, pH 8.0, 0.01 (w/v) %, Tween 20, 10 mM CaCl2) to prepare a 24 mU/mL enzyme solution. Subsequently, 5FAM-Abu-Gly-Asp-Asp-Asp-Lys-Ile-Val-Gly-Gly-Lys(CPQ2)-Lys-Lys-NH2 (SEQ ID NO: 1, purity: 97.2%, CPC Scientific Inc.) was diluted with the assay buffer to prepare a 2.1 μM substrate solution. A test compound is dissolved in DMSO into a 1 mM solution, and the solution was diluted by 100-fold with the assay buffer to give a compound solution. To a 384-well black plate (#784076, Greiner Bio-One), 5 μL of the compound solution and 5 μL of the substrate solution were added and mixed, and 5 μL of the enzyme solution was then added to the mixture, followed by mixing to start the reaction. The fluorescence intensity was measured with a fluorescence plate reader EnVision (The Perkin-Elmer Corp.) at an excitation wavelength of 485 nm and a fluorescence wavelength of 535 nm. The same reaction as above except that the test compound was not contained was performed (test compound non-addition group). Furthermore, the same reaction as above except that the test compound and the enzyme were not contained was performed (control group). The inhibition rate was calculated using the fluorescence intensity at 2 hours after the start of the reaction by the following expression: Inhibition rate (%)=(1−((fluorescence intensity of test compound addition group)−(fluorescence intensity of control group))/((fluorescence intensity of test compound non-addition group)−(fluorescence intensity of control group)))×100

[1] = 3.3 μM test compound, inhibition rate from fluorescence intensity at 2 hours after the start of the reaction

T1 sequence (P98073 whole entry): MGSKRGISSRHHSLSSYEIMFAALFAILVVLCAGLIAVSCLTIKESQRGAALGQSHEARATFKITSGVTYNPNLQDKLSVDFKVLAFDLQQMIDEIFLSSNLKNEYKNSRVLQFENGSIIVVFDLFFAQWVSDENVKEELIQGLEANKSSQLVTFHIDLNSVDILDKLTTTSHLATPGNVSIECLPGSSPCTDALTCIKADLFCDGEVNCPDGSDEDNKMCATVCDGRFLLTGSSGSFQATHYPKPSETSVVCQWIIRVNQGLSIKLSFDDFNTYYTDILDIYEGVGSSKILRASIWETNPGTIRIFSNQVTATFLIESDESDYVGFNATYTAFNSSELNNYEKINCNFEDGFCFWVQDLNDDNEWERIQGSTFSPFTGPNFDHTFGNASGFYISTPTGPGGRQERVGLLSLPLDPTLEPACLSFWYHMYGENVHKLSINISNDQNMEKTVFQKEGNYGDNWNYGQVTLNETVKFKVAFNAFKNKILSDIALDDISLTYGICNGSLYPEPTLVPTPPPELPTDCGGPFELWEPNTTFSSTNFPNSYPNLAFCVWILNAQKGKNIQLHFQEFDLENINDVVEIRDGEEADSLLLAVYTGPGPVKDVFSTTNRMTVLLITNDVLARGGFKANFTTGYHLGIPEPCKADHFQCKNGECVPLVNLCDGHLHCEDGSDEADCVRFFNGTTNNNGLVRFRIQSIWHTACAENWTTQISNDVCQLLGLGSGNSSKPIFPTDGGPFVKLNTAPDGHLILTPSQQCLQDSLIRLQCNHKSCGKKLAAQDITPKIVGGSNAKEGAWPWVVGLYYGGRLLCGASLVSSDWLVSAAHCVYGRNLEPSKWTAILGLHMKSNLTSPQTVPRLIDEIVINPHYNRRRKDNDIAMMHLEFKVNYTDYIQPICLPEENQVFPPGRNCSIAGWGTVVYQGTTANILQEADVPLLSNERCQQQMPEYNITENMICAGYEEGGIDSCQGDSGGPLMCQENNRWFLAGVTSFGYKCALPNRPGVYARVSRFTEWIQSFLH

SMILES | inhibition at 3.3 µM [1] [%] | also measured
N=C(N)Nc1ccc2c(c1)CCCc1c(cccc1C(=O)N[C@@H](CC(=O)O)C(=O)O)OC2=O [Example 30, N-((9-Carbamimidamido-6-oxo-6,11,12,13-tetrahydrodibenzo[b,g]oxonin-1-yl)carbonyl)-L-aspartic acid trifluoroacetate] | 101 | –
N=C(N)Nc1ccc2c(c1)CCCCc1c(OCC(=O)N[C@@H](CC(=O)O)C(=O)O)cccc1OC2=O [Example 31, N-(((3-carbamimidamido-14-oxo-5,7,8,14-tetrahydro-6H-dibenzo[b,h]oxecin-9-yl)oxy)acetyl)-L-aspartic acid] | 101 | –
N=C(N)Nc1ccc2c(c1)CCCCc1c(CC(=O)N[C@@H](CC(=O)O)C(=O)O)cccc1OC2=O [Example 32, N-((3-carbamimidamido-14-oxo-5,7,8,14-tetrahydro-6H-dibenzo[b,h]oxecin-9-yl)acetyl)-L-aspartic acid] | 71 | –
N=C(N)Nc1ccc2c(c1)CCCCc1c(cccc1C(=O)NCCS(=O)(=O)O)OC2=O [Example 33, 2-(((3-carbamimidamido-14-oxo-5,7,8,14-tetrahydro-6H-dibenzo[b,h]oxecin-9-yl)carbonyl)amino) ethanesulfonic acid] | 98 | –
N=C(N)Nc1ccc2c(c1)CCCCc1c(cccc1C(=O)O)OC2=O [Example 34, 3-carbamimidamido-14-oxo-6,7,8,14-tetrahydro-6H-dibenzo[b, h]oxecine-9-carboxylic acid] | 75 | –
N=C(N)Nc1ccc2c(c1)CCCCc1cc3c(cc1OC2=O)OC[C@H]3CC(=O)NCCS(=O)(=O)O [Example 35, 2-((((10S)-3-carbamimidamido-15-oxo-5,7,8,10,11,15-hexahydro-6H-12,14-dioxabenzo[5,6]cyclodeca[1,2-f]inden-10-yl)acetyl)amino)ethane-sulfonic acid] | 90 | –
N=C(N)Nc1ccc2c(c1)CCCCc1c(cc3c(c1C(=O)NCCS(=O)(=O)O)CCO3)OC2=O [Example 36, 2-(((3-carbamimidamido-15-oxo-5,7,8,10,11,15-hexahydro-6H-12,14-dioxabenzo[5,6]cyclodeca[1,2-f]inden-9-yl)carbonyl)amino)ethane-sulfonic acid] | 94 | –
N=C(N)Nc1ccc2c(c1)CCCCc1c(cccc1C(=O)N[C@@H](CC(=O)O)C(=O)O)OC2=O [Example 37, N-((3-Carbamimidamido-14-oxo-5,7,8,14-tetrahydro-6H-dibenzo[b,h]oxecin-9-yl)carbonyl)-L-aspartic acid] | 101 | –
N=C(N)Nc1ccc2c(c1)CCCCc1cc3c(cc1OC2=O)OC[C@H]3CC(=O)N[C@@H](CC(=O)O)C(=O)O [Example 39, N-(((10S)-3-carbamimidamido-15-oxo-5,7,8,10,11,15-hexahydro-6H-12, 14-dioxabenzo[5,6]cyclodeca[1,2-f]inden-10-yl)acetyl)-L-aspartic acid] | 98 | –
N=C(N)Nc1ccc2c(c1)CCCCc1c(cc3c(c1C(=O)N[C@@H](CC(=O)O)C(=O)O)CCO3)OC2=O [Example 40, N-((3-Carbamimidamido-15-oxo-5,7,8,10,11,15-hexahydro-6H-12,14-dioxabenzo[5,6]cyclodeca[1,2-f]inden-9-yl)carbonyl)-L-aspartic acid] | 100 | –
N=C(N)Nc1ccc2c(c1)CCCCc1c(CCC(=O)N[C@@H](CC(=O)O)C(=O)O)ccc(F)c1OC2=O [Example 41, N-(3-(3-carbamimidamido-12-fluoro-14-oxo-5,7,8,14-tetrahydro-6H-dibenzo[b,h]oxacin-9-yl)propanoyl)-L-aspartic acid] | 71 | –
N=C(N)Nc1ccc2c(c1)OCCCCOc1c(CCC(=O)N[C@@H](CC(=O)O)C(=O)O)cccc1OC2=O [Example 42, N-(3-(3-Carbamimidamido-16-oxo-6,7,8,9-tetrahydro-16H-dibenzo[b,f][1,4,8]trioxacyclododecin-11-yl)propanoyl)aspartic acid trifluoroacetate] | 100 | –
N=C(N)Nc1ccc2c(c1)OCCCOc1c(CCC(=O)N[C@@H](CC(=O)O)C(=O)O)cccc1OC2=O [Example 43, N-(3-(3-Carbamimidamido-15-oxo-7,8-dihydro-6H, 15H-dibenzo[b,f][1,4,8]trioxacycloundecin-10-yl)propanoyl)aspartic acid trifluoroacetate] | 101 | –
N=C(N)Nc1ccc2c(c1)CCCCOc1c(CCC(=O)N[C@@H](CC(=O)O)C(=O)O)cccc1OC2=O [Example 44, N-(3-(11-Carbamimidamido-14-oxo-7,8,9,14-tetrahydro-6H-dibenzo[b,f][1,4]dioxacycloundecin-4-yl)propanoyl)-L-aspartic acid trifluoroacetate] | 96 | –
N=C(N)Nc1ccc2c(c1)OCCCCOc1cc(CCC(=O)NC(CC(=O)O)C(=O)O)ccc1OC2=O (stereo not shown) [Example 46, N-(3-(3-carbamimidamido-16-oxo-6,7,8,9-tetrahydro-16H-dibenzo[b,f][1,4,8]trioxacyclo-dodecin-12-yl)propanoyl) aspartic acid] | 100 | –
N=C(N)Nc1ccc2c(c1)CCCOc1c(CCC(=O)N[C@@H](CC(=O)O)C(=O)O)cccc1OC2=O [Example 47, N-(3-(10-Carbamimidamido-13-oxo-6,7,8,13-tetrahydrodibenzo[b,f][1,4]dioxecin-4-yl)propanoyl)aspartic acid] | 101 | –
N=C(N)Nc1ccc2c(c1)CCc1nc(CCC(=O)N[C@@H](CC(=O)O)C(=O)O)ccc1OC2=O [Example 48, N-(3-(9-Carbamimidamido-6-oxo-11,12-dihydro-6H-[2]benzoxocino[4,3-b]pyridin-2-yl)propanoyl)-L-aspartic acid trifluoroacetate] | 42 | –
N=C(N)Nc1ccc2c(c1)CCCOc1cc(CCC(=O)N[C@@H](CC(=O)O)C(=O)O)ccc1OC2=O [Example 49, N-(3-(10-carbamimidamido-13-oxo-6,7,8,13-tetrahydro-dibenzo[b,f] [1,4]dioxecin-3-yl)propanoyl)-aspartic acid] | 100 | –
N=C(N)Nc1ccc2c(c1)OCCc1cc(CCC(=O)N[C@@H](CC(=O)O)C(=O)O)ccc1OC2=O [Example 50, N-(3-(9-Carbamimidamido-6-oxo-12,13-dihydro-6H-dibenzo[b,f][1,5]dioxonin-2-yl)propanoyl)-L-aspartic acid trifluoroacetate] | 101 | –
N=C(N)Nc1ccc2c(c1)OCCCOc1cc(CCC(=O)N[C@@H](CC(=O)O)C(=O)O)ccc1OC2=O [Example 51, N-(3-(3-carbamimidamido-15-oxo-7,8-dihydro-6H,15H-dibenzo[b,f][1,4,8]trioxacyclo-undecin-11-yl)propanoyl) aspartic acid] | – | 3.3 μM Inhibition [1]: 101%
N=C(N)Nc1ccc2c(c1)OCCOc1c(CCC(=O)N[C@@H](CC(=O)O)C(=O)O)cccc1OC2=O [Example 52, N-(3-(3-Carbamimidamido-14-oxo-6,7-dihydro-14H-dibenzo[b,h][1,4,7]trioxecin-9-yl)propanoyl)aspartic acid trifluoroacetate] | 101 | –
N=C(N)Nc1ccc2c(c1)OCCOc1cc(CCC(=O)N[C@@H](CC(=O)O)C(=O)O)ccc1OC2=O [Example 53, N-(3-(3-carbamimidamido-14-oxo-6,7-dihydro-14H-dibenzo[b,h][1,4,7]trioxecin-10-yl)propanoyl) aspartic acid] | 101 | –
N=C(N)Nc1ccc2c(c1)CCc1cccc(CCC(=O)N[C@@H](CC(=O)O)C(=O)O)c1OC2=O [Example 54, N-(3-(9-carbamimidamido-6-oxo-11,12-dihydro-6H-dibenzo[b,f]oxocin-4-yl)propanoyl)-L-aspartic acid] | 89 | –
N=C(N)Nc1ccc2c(c1)CCc1ccc(CCC(=O)N[C@@H](CC(=O)O)C(=O)O)cc1OC2=O [Example 55, N-(3-(9-carbamimidamido-6-oxo-11,12-dihydro-6H-dibenzo[b,f]oxocin-3-yl)propanoyl)-L-aspartic acid] | 98 | –
N=C(N)Nc1ccc2c(c1)CCc1cc(CCC(=O)N[C@@H](CC(=O)O)C(=O)O)ccc1OC2=O [Example 56, N-(3-(9-carbamimidamido-6-oxo-11,12-dihydro-6H-dibenzo[b,f]oxocin-2-yl)propanoyl)-L-aspartic acid] | 100 | –
N=C(N)Nc1ccc2c(c1)CCc1c(CCC(=O)N[C@@H](CC(=O)O)C(=O)O)cccc1OC2=O [Example 57, N-(3-(9-Carbamimidamido-6-oxo-11,12-dihydro-6H-dibenzo[b,f]oxocin-1-yl)propanoyl)-L-aspartic acid trifluoroacetate] | 100 | –
N=C(N)Nc1ccc2c(c1)CCc1ccccc1OC2=O [Example 58, 1-(6-Oxo-11,12-dihydro-6H-dibenzo[b,f]oxocin-9-yl)guanidine trifluoroacetate] | 55 | –
N=C(N)c1ccc2c(c1)CCc1ccccc1C(=O)O2 [Example 59, 6-Oxo-11,12-dihydro-6H-dibenzo[b,f]oxocine-2-carboximidamide trifluoroacetate] | – | inhibition at 3.3 µM: 57%
